Experiment [1] has as its system Candida and Staphylococcus biofilms. The experiment is described as follows: biofilm assays (sustained inhibition and disruption), bacterial and fungal. Type of experiment: cell-based, Candida albicans; Staphylococcus aureus. To be noted: in both assays (sustained inhibition and disruption). As for the experimental part: (§1) In vitro biofilm formation was tested using two assays, sustained inhibition and disruption. Both assays assess biofilm formed on polystyrene plates. The first, tests the effects of amino acid solution on a developing biofilm, while the latter tests the effects of the solution on a pre-formed mature biofilm, both compared to media without supplemented amino acids.
(§2) Other amino acids in the blood of animals could combat bacterial and fungal biofilm and therefore may be useful in treating these bacterial and fungal infections that would lie on the external surfaces of infected animals such as humans and could also be used to combat these pathogens on instruments and surfaces that need to be treated. Two types of biofilm assays were performed: a sustained inhibition assay and a disruption assay. The sustained inhibition assay assessed the compound's ability to prevent biofilm development throughout all stages of biofilm formation, while the disruption assay assessed the compound's ability to break up an existing mature biofilm.
(§3) For fungal biofilm assays, all solutions were prepared in RPMI 1640 medium. All bacterial biofilm solutions were prepared in Tryptic Soy Broth (TSB), supplemented with 1% glucose (henceforth referred to as TSB-G). All subsequent procedures were performed in a manner that maintained sterility. A solution of each amino acid to be tested was prepared in weight to volume concentrations ranging from 0.1-5.0%. Amino acids were also tested in combinations. Compound solutions were homogenized with gentle agitation in the dark (4° C., 24 hours) before use.
(§4) Fungal strains were streaked on Yeast Peptone Dextrose (YPD) agar plates and incubated at 30° C. for 48 hours. A single colony from each strain to be tested was inoculated into YPD broth and grown for 12 hours, at 30° C., shaking at 225 rpm. For the fungal biofilm inhibition assay, 1 μl of saturated overnight cell culture was added to either 80 μL of RPMI-1640 or RPMI-1640 supplemented with the amino acid compound solution to be tested, in a 384-well plate. The cells were allowed to adhere to the plate for 90 minutes at 37° C. shaking at 350 rpm. Loosely bound cells were washed once with phosphate buffered saline (PBS) and 80 μl of RPMI-1640, or RPMI-1640 supplemented with the amino acid compound solution was added to the plate. The plate was further incubated for 24 hours at 37° C. shaking at 350 rpm. Media was carefully aspirated and the biofilm was measured by optical density at 600 nm. Twelve replicates were performed for each tested condition and the reported values are normalized to the control (RPMI-1640 media only). For the fungal biofilm disruption assays, 80 μL of RPMI-1640 was added to the plate, along with 1 μL of overnight cell culture. The cells were allowed to adhere to the plate for 90 minutes at 37° C. shaking at 350 rpm. Loosely bound cells were washed once with PBS and 80 μL of RPMI-1640 was added to the plate. The plate was further incubated for 24 hours at 37° C. shaking at 350 rpm. Media was carefully aspirated from the mature biofilm and 80 μL of RPMI-1640, or RPMI-1640 supplemented with the amino acid compound solution to be tested, was gently added to the plate. The plate was further incubated for 24 hours at 37° C. shaking at 350 rpm. Media was carefully aspirated and the biofilm was measured by optical density at 600 nm. Twelve replicates were performed for each tested condition and the reported values are normalized to the control (RPMI-1640 media only).
Bacterial strains were streaked on Blood Agar plates (5% sheep blood in Tryptic Soy Agar) and incubated at 37° C. for 24 hours. A single colony from each strain to be tested was inoculated in a TSB broth and grown for 12 hours, at 37° C. shaking at 225 rpm. For the bacterial biofilm inhibition assays, 1 μL of saturated overnight cell culture was added to either 80 μL of TSB-G, or TSB-G supplemented with the amino acid compound solution to be tested, in a 384-well plate. […]

The subject of experiment [2] is C. albicans biofilms. The experiment is described as follows: in vitro biofilm disruption assay, fungal. Type of experiment: cell-based, Candida albicans. To be noted: 1% amino acid, p<0.001. The protocol:
(§5) Two types of biofilm assays were performed: a sustained inhibition assay and a disruption assay.
as §3
as §4, with “The cells were allowed to adhere to the plate for 90 minutes at 37° C. shaking at 350 rpm. Loosely bound cells were washed once with phosphate buffered saline (PBS) and 80 μl of RPMI-1640, or RPMI-1640 supplemented with the amino acid compound solution was added to the plate. The plate was further incubated for 24 hours at 37° C. shaking at 350 rpm.” left out, “The cells were allowed to adhere to the plate for 90 minutes at 37° C. shaking at 350 rpm.” left out, “The plate was further incubated for 24 hours at 37° C. shaking at 350 rpm.” left out
The cells were allowed to adhere to the plate for 90 minutes at 37° C. with shaking (350 rpm). […] The plate was further incubated for 24 hours at 37° C. with shaking (350 rpm). […] The plate was further incubated for 24 hours at 37° C. with shaking (350 rpm). Media was carefully aspirated and the biofilm was measured by optical density at 600 nm.

In experiment [3] the test system is S. aureus (MRSA) biofilms. The experiment is described as follows: in vitro biofilm disruption assay, bacterial. Type of experiment: cell-based. To be noted: Staphylococcus aureus, 24 h, disruption, S. aureus, 1% amino acid, p<0.001, read-out: Reduce B Biofilm. The protocol:
as §1, §2, §3
Bacterial strains were streaked on Blood Agar plates (5% sheep blood in Tryptic Soy Agar) and incubated at 37° C. for 24 hours. A single colony from each strain to be tested was inoculated in a TSB broth and grown for 12 hours, at 37° C. shaking at 225 rpm. For the bacterial biofilm inhibition assays, 1 μL of saturated overnight cell culture was added to either 80 μL of TSB-G, or TSB-G supplemented with the amino acid compound solution to be tested, in a 384-well plate. The cells were allowed to adhere to the plate for 60 minutes at 37° C. without shaking. The media was carefully aspirated and 80 μL of TSB-G, or TSB-G supplemented with the amino acid compound solution was added to the plate. The plate was further incubated for 24 hours at 37° C. without shaking. Media was carefully aspirated and the biofilm was measured by optical density at 600 nm. Eight or twelve replicates were performed for each tested condition and the reported values are normalized to the control (TSB-G media only). For the bacterial biofilm disruption assays, 80 μL of TSB-G was added to the plate, along with 1 μL of overnight cell culture. The cells were allowed to adhere to the plate for 60 minutes at 37° C. with no shaking. The media was carefully aspirated and 80 μL of TSB-G was added to the plate. The plate was further incubated for 24 hours at 37° C. with no shaking. Media was carefully aspirated from the mature biofilm and 80 μL of TSB-G, or TSB-G supplemented with the amino acid to be tested, was gently added to the plate. The plate was further incubated for 24 hours at 37° C. without shaking. Media was aspirated and the biofilm was measured by optical density at 600 nm. Twelve replicates were performed for each tested condition and the reported values are normalized to the control (TSB-G media only).
For disruption assay, 80 μl of TSB-G was added to the plate, along with 1 μl of overnight cell culture. The cells were allowed to adhere to the plate for 60 minutes at 37° C. with no shaking. The media was carefully aspirated and 80 μl of TSB-G was added to the plate. The plate was further incubated for 24 hours at 37° C. with no shaking. Media was carefully aspirated from the mature biofilm and 80 μl of TSB-G, or TSB-G supplemented with the amino acid to be tested, was added drop wise to the plate. The plate was further incubated for 24 hours at 37° C. with no shaking. […]

The test system of experiment [4] is fungal biofilms (C. albicans). The experiment is described as follows: biofilm assays (sustained inhibition and/or disruption), fungal. Type of experiment: cell-based, Candida albicans. The following applies: for anti-biofilm properties against fungal biofilms: administered individually; for anti-biofilm properties against fungal biofilms / effect on fungal biofilm growth: in at least one of the two biofilm assays. As for the experimental part: Other amino acids in the blood of animals could combat bacterial and fungal biofilm and therefore may be useful in treating these bacterial and fungal infections that would lie on the external surfaces of infected animals such as humans and could also be used to combat these pathogens on instruments and surfaces that need to be treated. Two types of biofilm assays were performed: a sustained inhibition assay and a disruption assay. The sustained inhibition assay assessed the compound's ability to prevent biofilm development throughout all stages of biofilm formation, while the disruption assay assessed the compound's ability to break up an existing mature biofilm. For fungal biofilm assays, all solutions were prepared in RPMI 1640 medium. All bacterial biofilm solutions were prepared in Tryptic Soy Broth (TSB), supplemented with 1% glucose (henceforth referred to as TSB-G). All subsequent procedures were performed in a manner that maintained sterility. […] Amino acids were also tested in combinations. Compound solutions were homogenized with gentle agitation in the dark (4° C., 24 hours) before use. Fungal strains were streaked on Yeast Peptone Dextrose (YPD) agar plates and incubated at 30° C. for 48 hours. A single colony from each strain to be tested was inoculated into YPD broth and grown for 12 hours, at 30° C., shaking at 225 rpm. For the fungal biofilm inhibition assay, 1 μl of saturated overnight cell culture was added to either 80 μL of RPMI-1640 or RPMI-1640 supplemented with the amino acid compound solution to be tested, in a 384-well plate. The cells were allowed to adhere to the plate for 90 minutes at 37° C. shaking at 350 rpm. Loosely bound cells were washed once with phosphate buffered saline (PBS) and 80 μl of RPMI-1640, or RPMI-1640 supplemented with the amino acid compound solution was added to the plate. The plate was further incubated for 24 hours at 37° C. shaking at 350 rpm. Media was carefully aspirated and the biofilm was measured by optical density at 600 nm. Twelve replicates were performed for each tested condition and the reported values are normalized to the control (RPMI-1640 media only). For the fungal biofilm disruption assays, 80 μL of RPMI-1640 was added to the plate, along with 1 μL of overnight cell culture. The cells were allowed to adhere to the plate for 90 minutes at 37° C. shaking at 350 rpm. Loosely bound cells were washed once with PBS and 80 μL of RPMI-1640 was added to the plate. The plate was further incubated for 24 hours at 37° C. shaking at 350 rpm. Media was carefully aspirated from the mature biofilm and 80 μL of RPMI-1640, or RPMI-1640 supplemented with the amino acid compound solution to be tested, was gently added to the plate. The plate was further incubated for 24 hours at 37° C. shaking at 350 rpm. Media was carefully aspirated and the biofilm was measured by optical density at 600 nm. Twelve replicates were performed for each tested condition and the reported values are normalized to the control (RPMI-1640 media only).

The test system of experiment [5] is C. albicans biofilms. Nature of the experiment: in vitro sustained inhibition biofilm assay, fungal. The following applies: 1% amino acid, p<0.001. Type of experiment: cell-based, Candida albicans. The protocol:
as §5, §3
as §4, with “The cells were allowed to adhere to the plate for 90 minutes at 37° C. shaking at 350 rpm. Loosely bound cells were washed once with phosphate buffered saline (PBS) and 80 μl of RPMI-1640, or RPMI-1640 supplemented with the amino acid compound solution was added to the plate. The plate was further incubated for 24 hours at 37° C. shaking at 350 rpm.” left out, “The cells were allowed to adhere to the plate for 90 minutes at 37° C. shaking at 350 rpm.” left out, “The plate was further incubated for 24 hours at 37° C. shaking at 350 rpm.” left out
The plate was further incubated for 24 hours at 37° C. with shaking (350 rpm). Media was carefully aspirated and the biofilm was measured by optical density at 600 nm.

Turning to `N[C@@H](Cc1c[nH]c2ccccc12)C(=O)O` [Tryptophan, L-tryptophan], the “effect on bacterial or fungal biofilms” value in experiment [1] is given as “neutral”.

Regarding `CCC(N)C(=O)O` (stereo not shown) [2 Aminobutyric Acid, 2-aminobutyric acid], the “effect on bacterial or fungal biofilms” value in experiment [1] is reported as “neutral”.

For the compound `N[C@@H](Cc1ccc(O)cc1)C(=O)O` [Tyrosine, L-tyrosine], in experiment [1], the “effect on bacterial or fungal biofilms” value is reported as “neutral”.

`N[C@@H](COP(=O)(O)O)C(=O)O` [Phosphoserine, O-phospho-L-serine]: the “Reduce F Biofilm” value in the experiment with C. albicans biofilms [2] is “● (a single dot [i.e. ●] signifies minor effect (from about 10 to about 30% change))”. Also, the inhibition at 1 % in experiment [3] lay within 10 to 30%. For the same compound, in experiment [4], the “anti-biofilm properties against fungal biofilms” value (“anti-biofilm properties” below) is “reduction by less than two-fold”.

Turning to `NC(=O)CC[C@H](N)C(=O)O` [Glutamine, L-glutamine], the “effect on bacterial or fungal biofilms” value in experiment [1] is on record as “neutral”.

`NCCO` [Ethanolamine, ethanolamine]: in the experiment with C. albicans biofilms [5], the “Reduce F Biofilm” value was “● (a single dot [i.e. ●] signifies minor effect (from about 10 to about 30% change))”. For the same compound, in experiment [4], the “anti-biofilm properties” value is on record as “reduction by less than two-fold”.

For `N[C@@H](Cc1c[nH]cn1)C(=O)O` [Histidine, L-histidine], the “effect on bacterial or fungal biofilms” value in experiment [1] is on record as “neutral”.

In the case of `CC(C)[C@H](N)C(=O)O` [Valine, L-valine], the “Promote F Biofilm” value in the experiment on C. albicans biofilms [5] is “● (a single dot [i.e. ●] signifies minor effect (from about 10 to about 30% change))”. For the same compound, the inhibition at 1 % in experiment [3] lay in the range of 10 to 30%. Besides, the “effect on fungal biofilm growth” value in experiment [4] is given as “support (improve) fungal biofilm growth”.

As for `N[C@@H](CCS)C(=O)O` [Homocysteine, L-homocysteine], the “effect on C. albicans biofilms in inhibition and disruption assays” value in experiment [4] (Tables 4 and 5) is “both inhibited and disrupted”. The “anti-biofilm properties” value in experiment [4] is given as “reduction by less than two-fold”.

Regarding `Cn1cncc1C[C@H](N)C(=O)O` [3-Methylhistidine, 3-methyl-L-histidine], the “Promote F Biofilm” value in the experiment on C. albicans biofilms [5] is “● (a single dot [i.e. ●] signifies minor effect (from about 10 to about 30% change))”. Moreover, in experiment [3], the inhibition at 1 % fell in the range of 10 to 30%. The “effect on fungal biofilm growth” value in experiment [4] was “support (improve) fungal biofilm growth”.

`Cn1cnc(C[C@H](N)C(=O)O)c1` [1-Methylhistidine, 1-methyl-L-histidine]: the “effect on bacterial or fungal biofilms” value in experiment [1] is on record as “neutral”.

The values above are taken from patent US12226386B2, “Compositions and methods for treating biofilms” (The Regents of the University of California, priority 2018, dated 2025).
